Experimental findings from patent US8058467B2, “Prostaglandin derivatives” (Nicox S.A., priority 2004, dated 2011) are described below.

Test [1] concerns rat pheochromocytoma cells (PC12). The test is described as follows: cGMP accumulation in PC12 cells (nitric oxide-mediated activity). In kind it is cell-based. The following applies: for EC50: Rattus norvegicus, PC-12, 0.75 h, 30 μM YC-1, read-out: EC50 (effective concentration producing half maximal response), cGMP accumulation. As for the experimental part:
The formation of cyclic guanosine-3′,5′ monophosphate (cGMP) in cells in the eye is involved in the regulation of aqueous humor flow. Thus, elevation of cGMP levels leads to decreased aqueous humor production and reduction of intraocular pressure.
We measured the effects of test drugs on cGMP formation in a well established cell assay.
Undifferentiated pheochromocytoma cells (PC12) were used. The monolayer cells were incubated for 45 min in Hank's Balanced Salt Solution enriched with 10 mM Hepes, 5 mM MgCl2 and 0.05% ascorbic acid at the final pH of 7.4 and containing 100 μM of the phosphodiesterase inhibitor, isomethyl-butyl-xanthine (IBMX), 30 μM of the guanylyl cyclase […], YC-1, and the test drugs at the appropriate concentration. The reaction was terminated by the removal of the incubating buffer followed by the addition of […] of 100% ice-cold ethanol. The plate was then dried under hot air steam and the residue dissolved, extracted and analysed using commercially available cyclic cGMP enzyme immunoassay kit.

For test [2], the system named is carbomer-evoked increase in IOP. Description: Intraocular pressure in carbomer-treated rabbits. In kind it is in vivo, rabbit. As for the experimental part:
(§1) Male NZW rabbits ranging from 3-5 kgs of body weight were used in this study. Briefly, the ability of Latanoprost nitroderivative (compound 4, EXAMPLE 3) at reducing intraocular pressure (IOP) was tested in animals previously treated with intracameral injection of 0.25% carbomer solution installation until after a stable increase of the intraocular pressure was reached. In this particular study, test drugs were administered to one eye with the dosage schedule of 1 drop/eye/day for 5 days a week with a physiologic solution containing 0.005% of control or test compounds. The IOP was monitored 3 h after drug application, two-three times weekly for a total of 4 weeks. This concentration was chosen as it reflects that of latanoprost isopropyl ester currently used in clinic to treat the increase of IOP observed in glaucoma patients. Furthermore, at each visit, about 200 μl of aqueous humor was collected using a 30 gauge needle from both eyes under lidocaine anesthesia for further biochemical evaluation of cGMP, camp and nitrite/nitrate contents.

Test [3] concerns aqueous humor cGMP, cAMP and NOx. Description: cGMP, cAMP and NOx content of aqueous humor in carbomer-treated rabbits. In kind it is in vivo, rabbit. The conditions noted are these: for NOx / cAMP / cGMP: aqueous humor; for NOx in intraocular aqueous humor (in words) / cGMP in intraocular aqueous humor (in words) / intraocular cAMP (in words): over the 4-week treatment. As for the experimental part: as §1

[4] abbreviates: 45 min, 100 μM IBMX, 30 μM YC-1.
Where [5] appears, read: Day 2, 0.005% solution, 1 drop/eye/day, 3 h after application.
[6] abbreviates: Day 7, 0.005% solution, 1 drop/eye/day, 3 h after application.
Where [7] appears, read: Day 10, 0.005% solution, 1 drop/eye/day, 3 h after application.
Setting [8] is: Day 15, 0.005% solution, 1 drop/eye/day, 3 h after application.
The mark [9] stands for this setting: Day 17, 0.005% solution, 1 drop/eye/day, 3 h after application.
Where [10] appears, read: Day 23, 0.005% solution, 1 drop/eye/day, 3 h after application.
[11] abbreviates: Day 25, 0.005% solution, 1 drop/eye/day, 3 h after application.
The mark [12] stands for this setting: Pre-treatment (baseline after intracameral 0.25% carbomer).

The structures appear in SMILES notation.

In the case of `O=C(CCC/C=C\C[C@@H]1[C@@H](CC[C@@H](O)CCc2ccccc2)[C@H](O)C[C@@H]1O)OCCCCO[N+](=O)[O-]` (relative stereo) [Compound 1, [1R-[1α(Z),2α(R*),3α,5α]]-7-[3,5-dihydroxy-2-(3-hydroxy-5-phenylpentyl)cyclopentyl]-5-heptenoic acid 4-(nitrooxy)butyl ester], the “Emax (maximum effect), cGMP accumulation” value in test [1] (setting [4]) was determined as 290 % over vehicle. Besides, the EC50 in test [1] (45 min, 100 μM IBMX) is 2400 nM.
`O=C(CCC/C=C\C[C@@H]1[C@@H](CC[C@@H](O)CCc2ccccc2)[C@H](O)C[C@@H]1O)Oc1cccc(CO[N+](=O)[O-])c1` (relative stereo) [Compound 4, [1R-[1α(Z),2β(R*),3α,5α]]-7-[3,5-dihydroxy-2-(3-hydroxy-5-phenylpentyl)cyclopentyl]-5-heptenoic acid 3-(nitrooxymethyl)phenyl ester]: the IOP in test [2] (setting [5]) is reported as 31 ± 1 mmHg; in test [2] (setting [6]), 26 ± 1 mmHg; in test [2] (setting [7]), 20 ± 1 mmHg; in test [2] (setting [8]), 18 ± 2 mmHg; in test [2] (setting [9]) it was 16 ± 1 mmHg; in test [2] (setting [10]), 15 ± 1 mmHg. In addition, the IOP in test [2] (setting [11]) amounted to 14 ± 1 mmHg; in test [2] (setting [12]) it was 42 ± 2 mmHg. Also, the results for the “decrease of intraocular pressure” value in test [2] (by the end of the study (4 weeks)) and in test [2] (within 7 days of repeated treatments) were “over 65%” and “about 50%”, respectively. The NOx in test [3] (I Week) worked out at 22 ± 2 nmol/mg prot; in test [3] (II Week), 25 ± 3 nmol/mg prot; in test [3] (III Week), 26 ± 3 nmol/mg prot; in test [3] (IV Week), 28 ± 3 nmol/mg prot; in test [3] (Pre-treatment) it was 17 ± 1 nmol/mg prot. The cAMP in test [3] (I Week) is given as 600 ± 25 fmol/mg prot; in test [3] (II Week), 650 ± 31 fmol/mg prot; in test [3] (III Week) it was 680 ± 28 fmol/mg prot; in test [3] (IV Week) it was 660 ± 22 fmol/mg prot; in test [3] (Pre-treatment) it was 520 ± 20 fmol/mg prot. The cGMP came to 102 ± 5 fmol/mg prot in test [3] (I Week); 125 ± 5 fmol/mg prot in test [3] (II Week); 140 ± 5 fmol/mg prot in test [3] (III Week); 160 ± 5 fmol/mg prot in test [3] (IV Week); 88 ± 5 fmol/mg prot in test [3] (Pre-treatment). The “NOx in intraocular aqueous humor (in words)” value in test [3] is “increased”. The “cGMP in intraocular aqueous humor (in words)” value in test [3] is “increased”. The “intraocular cAMP (in words)” value in test [3] is on record as “remained unaltered”. Further, in test [1] (setting [4]), the “Emax (maximum effect), cGMP accumulation” value came out at 450 % over vehicle. For the same compound, the EC50 in test [1] (45 min, 100 μM IBMX) worked out at 4400 nM.
`COc1cc(/C=C/C(=O)OCCCCO[N+](=O)[O-])ccc1OC(=O)CCC/C=C\C[C@@H]1[C@@H](CC[C@@H](O)CCc2ccccc2)[C@H](O)C[C@@H]1O` (relative stereo) [Compound 11, [1R-[1α(Z), 2β(R*),3α,5α]]-7-[3,5-dihydroxy-2-(3-hydroxy-5-phenylpentyl)cyclopentyl]-5-heptenoicacid[2-methoxy-4-[2-propenoyloxy(4-nitrooxybutyl)]]phenyl ester]: in test [1] (setting [4]), the “Emax (maximum effect), cGMP accumulation” value stood at 480 % over vehicle. Also, the EC50 in test [1] (45 min, 100 μM IBMX) came to 1500 nM.
As to `CC(C)OC(=O)CCC/C=C\C[C@@H]1[C@@H](CC[C@@H](O)CCc2ccccc2)[C@H](O)C[C@@H]1O` [Latanoprost isopropyl ester, reference compound], the “change of intraocular pressure (in words)” value in test [2] (0.005% solution, 1 drop/eye/day, 4 weeks) is on record as “nor its isopropyl derivative elicited any appreciable change”. For the same compound, the IOP in test [2] (setting [5]) is recorded as 34 ± 2 mmHg; in test [2] (setting [6]), 33 ± 3 mmHg; in test [2] (setting [7]), 30 ± 1 mmHg; in test [2] (setting [8]), 31 ± 2 mmHg; in test [2] (setting [9]), 30 ± 2 mmHg; in test [2] (setting [10]), 32 ± 2 mmHg. Also, the IOP in test [2] (setting [11]) was 30 ± 2 mmHg; in test [2] (setting [12]) it was 37 ± 2 mmHg. Also, the NOx in test [3] (I Week) stood at 18 ± 2 nmol/mg prot; in test [3] (II Week) it was 18 ± 1 nmol/mg prot; in test [3] (III Week) it was 19 ± 2 nmol/mg prot; in test [3] (IV Week), 19 ± 2 nmol/mg prot; in test [3] (Pre-treatment) it was 16 ± 1 nmol/mg prot. Also, the cAMP is recorded as 550 ± 22 fmol/mg prot in test [3] (I Week); 600 ± 30 fmol/mg prot in test [3] (II Week); 620 ± 31 fmol/mg prot in test [3] (III Week); 625 ± 31 fmol/mg prot in test [3] (IV Week); 510 ± 18 fmol/mg prot in test [3] (Pre-treatment). Also, the cGMP in test [3] (I Week) was found to be 88 ± 6 fmol/mg prot; in test [3] (II Week), 98 ± 6 fmol/mg prot; in test [3] (III Week), 99 ± 6 fmol/mg prot; in test [3] (IV Week), 100 ± 6 fmol/mg prot; in test [3] (Pre-treatment), 87 ± 6 fmol/mg prot. Besides, in test [3], the “NOx in intraocular aqueous humor (in words)” value is “did not significantly affect”. Further, in test [3], the “cGMP in intraocular aqueous humor (in words)” value is “did not significantly affect”. Moreover, the “intraocular cAMP (in words)” value in test [3] is “did not significantly affect”.
With `CC(C)OC(=O)CCC/C=C\C[C@@H]1[C@@H](CC[C@@H](O)CCc2ccccc2)[C@H](O)C[C@@H]1O` [Latanoprost, reference compound], the “cGMP accumulation (in words)” value in test [1] (1-50 μM) is on record as “not shared”. For the same compound, in test [1] (setting [4]), the “EC50 (effective concentration producing half maximal response), cGMP accumulation” value is “Not effective” and the “Emax (maximum effect), cGMP accumulation” value is given as “Not effective”.
